Data: patent US20190358264A1, “METHODS OF TREATING DISEASES ASSOCIATED WITH ILC2 CELLS” (Limm Therapeutics, SA, priority 2016, published 2019)

What was measured:
[1] = tested on: ILC2s; assay: In vitro activation of purified ILC2s, type 2 cytokine protein by intracellular staining; assay type: cell-based, mouse; details: purified ILC2s, Nmur1 competent vs deficient; NMUR1-dependent
Protocol: (§1) FIGS. 10a-10d: FIG. 10a, Ki67 expression in intestinal ILC2s after an overnight in vitro stimulation with NmU23 alone (100 ng/mL, Phoenix Pharmaceutical) or NmU23 together with the survival cytokines Interleukin (IL)-2 and/or IL-7 (10 ng/mL). FIG. 10b, Ki67 expression in intestine ILC2 after in vivo administration of NmU23 (4 g/day during 2 days). n=5. FIG. 10c, ILC2-derived type 2 cytokines (IL-5, IL-13 and Amphiregulin (Areg)) in sorted intestine ILC2 after an overnight stimulation with NmU23, mouse recombinant IL-25 or IL-33 (R&D) (10, 50 and 100 ng/mL). Negative control: unstimulated ILC2, Positive control: ILC2 activated with phorbol 12-myristate 13-acetate (PMA, 50 ng/ml) plus ionomycin (500 ng/ml). n=3. FIG. 10d, Dot plots representative of the cytokine production with increasing dose of NmU23, rIL-25 and rIL-33. *P<0.05; **P<0.01; ***P<0.001; ****P<0.0001; ns not significant.
(§2) For in vitro experiments, purified lung and small intestine lamina propria ILC2s were FBS starved for 2 hours prior to stimulation and cultured in complete RPMI (supplemented with 10% foetal bovine serum (FBS), 1% hepes, sodium pyruvate, glutamine, streptomycin and penicillin) at 37° C. For mRNA analysis, ILC2s were stimulated overnight with recombinant mouse Neuromedin U 23 peptide (NmU23, 100 ng/mL; Phoenix pharmaceuticals). Both NmU23-stimulated and control ILC2s were cultured in the presence of IL-2 and IL-7 (10 ng/mL; Peprotech). ILC2s were lysed using RLT buffer (Qiagen). For cytokine protein analysis, ILC2s were incubated exclusively with brefeldin A (eBioscience) for 12 hours prior to intracellular staining. For in vivo experiments, B6 mice were injected intraperitoneal with NmU23 peptide (2 g/day) during Nippostrongylus brasiliensis infection or with a single dose of NmU23 (20 μg) and analyzed after 8 hours. Control mice were treated with PBS alone.
Intracellular staining was performed using IC fixation/permeabilization kit (eBioscience). Flow cytometry analysis and cell sorting were performed using BD LSRFORTESSA and BD FACSAria flow cytometers (BD Biosciences). […]

[2] = tested on: intestinal ILC2s; assay: Ki67 expression in intestinal ILC2s after in vitro stimulation with NmU23; assay type: cell-based, mouse; details: NmU23 100 ng/mL overnight
Protocol: as §1
For in vitro experiments, purified lung and small intestine lamina propria ILC2s were FBS starved for 2 hours prior to stimulation and cultured in complete RPMI (supplemented with 10% foetal bovine serum (FBS), 1% hepes, sodium pyruvate, glutamine, streptomycin and penicillin) at 37° C. […] For in vivo experiments, B6 mice were injected intraperitoneal with NmU23 peptide (2 g/day) during Nippostrongylus brasiliensis infection or with a single dose of NmU23 (20 μg) and analyzed after 8 hours. […]

[3] = tested on: NFAT; assay: NFAT translocation in ILC2 by confocal microscopy; assay type: cell-based, mouse; details: NmU23 100 ng/mL, 90 minutes, Lamina Propria ILC2, anti-NFAT2 staining (FIG. 11c)
Protocol: FIGS. 11a-11b: ILC2 were FBS deprived for 2 hours prior to treatment with either (FIG. 11a) 11R-VIVIT (inhibits NFAT activation) (10 μM) or (FIG. 11b) cyclosporin A (CsA, […]). Expression of type 2 cytokines were measured by quantitative RT-PCR (FIGS. 11a,11b). n=3-6. FIG. 11c, Deprivated ILC2 from Lamina Propria were stimulated 90′ with NmU23 (100 ng/mL), fixed, permeabilized and stained with anti-NFAT2 monoclonal antibody (abcam). Cells were analyzed by confocal microscopy. *P<0.05; **P<0.01; ***P<0.001; ****P<0.0001; ns not significant.

[4] = tested on: ILC2s; assay: In vivo administration of NmU23, ILC2- and T cell-derived type 2 cytokines; parameters: species or system mouse; details: single dose NmU23 20 μg intraperitoneal, analyzed after 8 hours, vs PBS
Protocol: as §2
Intracellular staining was performed using IC fixation/permeabilization kit (eBioscience). Flow cytometry analysis and cell sorting were performed using BD LSRFORTESSA and BD FACSAria flow cytometers (BD Biosciences). Data analysis was done using FlowJo software (Tristar). Sorted populations were >95% pure. […]

[5] = tested on: intestine ILC2; assay: Ki67 expression in intestine ILC2 after in vivo administration of NmU23; parameters: species or system mouse; details: NmU23 4 g/day during 2 days (FIG. 10b)
Protocol: as §1

## recombinant mouse Neuromedin U 23 peptide (FKAEYQSPSVGQSKGYFLFRPRN; listed as Mus musculus) [NmU23, NMUR1 agonist neuropeptide, Phoenix pharmaceuticals]
[1]
  expression of the type 2 cytokine proteins IL-5 and IL-13 in ILC2s: potent expression
[2]
  ILC2 proliferation as measured by Ki67, in vitro: increased ILC2 proliferation
[3]
  translocation of NFAT in ILC2: efficient translocation of NFAT from the cytoplasm to the nucleus
[4]
  T helper cell-derived type 2 cytokines after in vivo administration: unperturbed
  type 2 cytokine production from ILC2s after in vivo administration: immediate and selective type 2 cytokine production
[5]
  ILC2 proliferation as measured by Ki67, in vivo: increased ILC2 proliferation
